# Like-named read-outs stand apart in the source and are kept apart here.
# Key:
# [1] = tested on: EAhy926 cells; assay: Apoptosis in proliferating and arrested endothelial cells (FIG. 6); type: cell-based, human; settings: EAhy926 at ~50% or 100% confluency
# Procedure: Parental EAhy926 cells were seeded in 24-well plate so that they would acquire after an overnight recuperation ˜50% or 100% confluency, while their ρ^0 counterparts were seeded at 50% confluency. The proliferating and confluent cells were then exposed to MitoVES at concentrations and for times shown, and assessed for apoptosis level by the Annexin V-binding method (A) and for ROS accumulation using the fluorescent probe DHE (B).
# Toxicity of α-TOS, VE11S (“VES”), MitoVE3S, MitoVE5S, MitoVE7S, MitoVE9S, MitoVE11S (“MitoVES”), MitoVE11AE (“MitoVEAE”), MitoVE11F (“MitoVEF”), MitoVE11M (“MitoVEM”), and VES4TPP towards cancer cells was assessed on the basis of IC50, as detailed in Turanek, J., et al. ((2008). Liposomal formulation of vitamin E analogs as an efficient and selective anti-cancer treatment. Clin. Cancer Res. (submitted)). […]
# [2] = tested on: Ras-transformed B9 cells with a defective Complex II; assay: Apoptosis in Ras-transformed B1 and B9 cells (FIG. 4C); type: cell-based, Chinese hamster
# Procedure: 4C—After 24 h of treatment with Complex II targeting drugs TTFA or MitoVES, Ras transformed B1 and B9 cells were assessed for apoptosis using the Annexin V binding method.
# The following cell lines used in this study were obtained from ATCC, unless specified otherwise: Human T lymphoma cells Jurkat, human mesothelioma cells Meso-I, MM-BI, Ist-Mes, Ist-Mes-2 (Pass, H. I. et al. Characteristics of nine newly derived mesothelioma cell lines. Ann. Thorac. Surg. 59, 835-844 (1995)), human breast cancer cells MCF-7 (erbB2-low) and MDA-MB-453 (erbB2-high), human colorectal cells HCT-116, human hepatocarcinoma cells Huh-7, mouse mesothelioma cells AE17 (Jackaman, C. et al. IL-2 intratumoral immunotherapy enhances CD8+ T cells that mediate destruction of tumor cells and tumor-associated vasculature: a novel mechanism for IL-2. J. Immunol. 171, […] (2003), human non-malignant mesothelial cells Met-5A, […] (Claycomb, W. C. et al. HL-1 cells: a cardiac muscle cell line that contracts and retains phenotypic characteristics of the adult cardiomyocyte. Proc. Natl. Acad. Sci. USA 95, 2979-2984 […]) and H9c2, and the human endothelial-like cells EAhy926 (Edgell, C. J., McDonald, C. C. & Graham, J. B. Permanent cell line expressing human factor VIII-related antigen established by hybridization. Proc. Natl. Acad. Sci. USA 80, 3734-3737 (1983)). Jurkat cells were grown in the RPMI medium while DMEM was used for other malignant cell lines and for Met-5A cells, supplemented with 10% FCS and antibiotics. HL-1 cells, maintained in fibronectin/gelatine-coated dishes, were grown in the Claycomb medium supplemented with noradrenalin (Claycomb, W. C. et al. HL-1 cells: a cardiac muscle cell line that contracts and retains phenotypic characteristics of the adult cardiomyocyte. Proc. Natl. Acad. Sci. USA 95, 2979-2984 […]), EAhy926 cells were grown in complete DMEM supplemented with HAT (Edgell, C. J., McDonald, C. C. & Graham, J. B. Permanent cell line expressing human factor VIII-related antigen established by hybridization. Proc. Natl. Acad. Sci. USA 80, 3734-3737 (1983)). Cells deficient in mtDNA (ρ^0 phenotype) were prepared as detailed in Weber, T. et al., (Mitochondria play a central role in apoptosis induced by α-tocopheryl succinate, an agent with anticancer activity. Comparison with receptor-mediated pro-apoptotic signaling. Biochemistry 42, 4277-4291 (2003)). Acquisition of the ρ^0 phenotype was confirmed by lack of expression by the cells of the mtDNA-encoded cytochrome c oxidase subunit II (COXII not shown). […]
# [3] = cited from earlier work
SMILES,apoptosis in proliferating versus arrested endothelial cells [1],"sensitivity to apoptosis of Ras-transformed B9 cells compared to Ras-transformed B1 cells ([2]; 24 h treatment, Annexin V binding)",sensitivity after reconstitution of Complex II function (human SDHC) in Ras-transformed B9 cells ([2]; B9 cells transfected to express human SDHC),fold higher percentage in the protonated form ([3]; acidic pH of 6.2-6.4 of the tumour interstitium versus neutral pH),fraction deprotonated ([3]; at neutral pH) [%],pKa [3],pKa ([3]; listed as α-tocopheryl succinate)
Cc1c(C)c2c(c(C)c1OC(=O)CCC(=O)[O-])CCC(C)(CCCCCCCCCCC[P+](c1ccccc1)(c1ccccc1)c1ccccc1)O2 (stereo not shown) [MitoVE11S],causes apoptosis in proliferating but not arrested endothelial cells,much less sensitive,restored the sensitivity,–,–,–,–
"Cc1c(C)c2c(c(C)c1OC(=O)CCC(=O)O)CC[C@@](C)(CCC[C@H](C)CCC[C@H](C)CCCC(C)C)O2 [α-TOS, α-tocopheryl succinate, reference compound]",–,–,–,10-15 fold,~98,< 6,5.6
